Experimental findings from publication PMC7168933, “Design, Synthesis and Biochemical Evaluation of Novel Ethanoanthracenes and Related Compounds to Target Burkitt’s Lymphoma” (Pharmaceuticals, 2020) are described below.

Series [1] deals with MUTU-1 Burkitt lymphoma cell line (EBV+). In words: cells. The conditions noted are these: Mutu-1, 24 h; for viability at 1 µM: read-out: MUTU-1 Cell Viability % 1 μM, 1 μM, 24 h; for viability at 10 µM: read-out: MUTU-1 Cell Viability % 10 μM, 10 μM, 24 h; for IC50: read-out: IC50 MUTU-I 24 h.
Series [2] has as its system DG-75 Burkitt lymphoma cell line (EBV−, chemoresistant). Briefly: cells. The conditions noted are these: Homo sapiens, DG-75, 48 h; for viability at 1 µM: read-out: DG-75 Cell Viability % 1 μM, 1 μM, 48 h; for viability at 10 µM: read-out: DG-75 Cell Viability % 10 μM, 10 μM, 48 h.

Broadly, the melting point is the temperature of the solid-liquid transition. What is called viability is a read-out of living cells in per cent, often relative to untreated cells. The IC50 is the midpoint of a concentration-inhibition curve.

`C/C(=C\C12c3ccccc3C(Cl)(c3ccccc31)C1C(=O)N(c3ccccc3)C(=O)C12)[N+](=O)[O-]` (centres unmarked) [Compound 17g, (E)-9-Chloro-10-(2-nitroprop-1-en-1-yl)-13-phenyl-9,10-dihydro-9,10-[3,4]epipyrroloanthracene-12,14-dione] displayed a melting point of 268 to 271 °C. Besides, in series [1], the viability at 1 µM amounted to 88% and the viability at 10 µM was 78.5%. In series [2], the viability at 1 µM was 85.3% and the viability at 10 µM is 84.3%.

In turn, `CC/C(=C\C12c3ccccc3C(Cl)(c3ccccc31)C1C(=O)N(c3ccccc3)C(=O)C12)[N+](=O)[O-]` (centres unmarked) [Compound 17h, (E)-9-Chloro-10-(2-nitrobut-1-en-1-yl)-13-phenyl-9,10-dihydro-9,10-[3,4]epipyrroloanthracene-12,14-dione] returned a melting point of 261 to 262 °C. In series [1], the viability at 1 µM was found to be 107% and the viability at 10 µM worked out at 96.3%. Also, in series [2], the viability at 1 µM was found to be 89.2% and the viability at 10 µM came to 90.3%.

Compound `O=C1C2C3c4ccccc4C(/C=C/[N+](=O)[O-])(c4ccccc43)C2C(=O)N1Cc1ccccc1` (centres unmarked) [Compound 17i, (E)-13-Benzyl-9-(2-nitrovinyl)-9,10-dihydro-9,10-[3,4]epipyrroloanthracene-12,14-dione] showed a melting point of 232 to 236 °C. Further, in series [1], the viability at 1 µM was determined as 74.9% and the viability at 10 µM is 0.86%. Also, in series [2], the viability at 1 µM is 93.1% and the viability at 10 µM worked out at 0.67%.

In the case of `C/C(=C\C12c3ccccc3C(c3ccccc31)C1C(=O)N(Cc3ccccc3)C(=O)C12)[N+](=O)[O-]` (centres unmarked) [Compound 17j, (E)-13-Benzyl-9-(2-nitroprop-1-en-1-yl)-9,10-dihydro-9,10-[3,4]epipyrroloanthracene-12,14-dione], the melting point is 232 to 236 °C. In series [1], the viability at 1 µM came to 94.6% and the viability at 10 µM was 85.6%. Further, in series [2], the viability at 1 µM worked out at 104% and the viability at 10 µM stood at 87.9%.

In turn, `CC/C(=C\C12c3ccccc3C(c3ccccc31)C1C(=O)N(Cc3ccccc3)C(=O)C12)[N+](=O)[O-]` (centres unmarked) [Compound 17k, (E)-13-Benzyl-9-(2-nitrobut-1-en-1-yl)-9,10-dihydro-9,10-[3,4]epipyrroloanthracene-12,14-dione] had a melting point of 188 to 199 °C. In addition, in series [1], the viability at 1 µM came out at 80.4% and the viability at 10 µM was 94%. In addition, in series [2], the viability at 1 µM came to 74.8% and the viability at 10 µM came out at 96%.

In turn, `COc1cc(CN2C(=O)C3C4c5ccccc5C(/C=C(\C)[N+](=O)[O-])(c5ccccc54)C3C2=O)cc(OC)c1OC` (centres unmarked) [Compound 17l, (E)-9-(2-Nitroprop-1-en-1-yl)-13-(3,4,5-trimethoxybenzyl)-9,10-dihydro-9,10-[3,4]epipyrroloanthracene-12,14-dione] had a melting point of 227 to 229 °C. In series [1], the viability at 1 µM is 66.8% and the viability at 10 µM is 77.3%. Moreover, in series [2], the viability at 1 µM is 81.9% and the viability at 10 µM was determined as 82.1%.

In turn, `CC/C(=C\C12c3ccccc3C(c3ccccc31)C1C(=O)N(Cc3cc(OC)c(OC)c(OC)c3)C(=O)C12)[N+](=O)[O-]` (centres unmarked) [Compound 17m, (E)-9-(2-Nitrobut-1-en-1-yl)-13-(3,4,5-trimethoxybenzyl)-9,10-dihydro-9,10-[3,4]epipyrroloanthracene-12,14-dione] displayed a melting point of 224 to 229 °C. Also, in series [1], the viability at 1 µM was 82.2% and the viability at 10 µM worked out at 66.8%. Besides, in series [2], the viability at 1 µM was 82.2% and the viability at 10 µM was determined as 77.8%.

For `O=C1C2C3c4ccccc4C(/C=C/[N+](=O)[O-])(c4ccccc43)C2C(=O)N1CCc1ccccc1` (centres unmarked) [Compound 17n], the melting point lay within 152 to 156 °C. For the same compound, in series [1], the IC50 turned out to be 260 nM, the viability at 1 µM turned out to be 2.8% and the viability at 10 µM turned out to be 2%. In series [2], the viability at 1 µM was 19.9% and the viability at 10 µM is 0.07%.

For `O=c1n(-c2ccccc2)c(=O)n2n1C1c3ccccc3C2(/C=C/[N+](=O)[O-])c2ccccc21` [Compound 18, (E)-9-(2-Nitrovinyl)-14-phenyl-9,10-dihydro-9,10-[1,2]epitriazoloanthracene-13,15-dione], the melting point was 168 to 169 °C. Also, in series [1], the viability at 1 µM is 75% and the viability at 10 µM was 13.2%. Moreover, in series [2], the viability at 1 µM was found to be 87.3% and the viability at 10 µM was 13.2%.

In turn, `CC(=O)OC1(C#N)CC2c3ccccc3C1(/C=C/[N+](=O)[O-])c1ccccc12` (centres unmarked) [Compound 19d, (E)-11-Cyano-10-(2-nitrovinyl)-9,10-dihydro-9,10-ethanoanthracen-11-yl acetate] returned a melting point of 168 to 170 °C. Moreover, in series [1], the viability at 1 µM was 48.9% and the viability at 10 µM came out at 0.69%. Further, in series [2], the viability at 1 µM came out at 99.4% and the viability at 10 µM turned out to be 1%.

In turn, `COC(=O)C1C2c3ccccc3C(/C=C/[N+](=O)[O-])(c3ccccc32)C1C(=O)OC` (centres unmarked) [Compound 19e, Dimethyl (E)-9-(2-nitrovinyl)-9,10-dihydro-9,10-ethanoanthracene-11,12-dicarboxylate] registered a melting point of 141 to 143 °C. Also, in series [1], the viability at 1 µM was found to be 84.7% and the viability at 10 µM turned out to be 10.7%. For the same compound, in series [2], the viability at 1 µM amounted to 102% and the viability at 10 µM turned out to be 10.3%.

Compound `CCOC(=O)C1C2c3ccccc3C(/C=C/[N+](=O)[O-])(c3ccccc32)C1C(=O)OCC` (centres unmarked) [Compound 19f, Diethyl (E)-9-(2-nitrovinyl)-9,10-dihydro-9,10-ethanoanthracene-11,12-dicarboxylate] had a melting point of 151 to 152 °C. Moreover, in series [1], the 50% inhibitory concentration (IC50) worked out at 550 nM, the viability at 1 µM was 13.6% and the viability at 10 µM turned out to be 13.8%. In addition, in series [2], the viability at 1 µM was 13.9% and the viability at 10 µM is 13.8%.

Compound `CC(=CC12c3ccccc3C(c3ccccc31)c1ccccc12)[N+](=O)[O-]` [Compound 20b, (E)-9-(2-Nitroprop-1-en-1-yl)-9,10-dihydro-9,10-[1,2]benzenoanthracene] returned a melting point of 226 to 228 °C. In series [1], the viability at 1 µM was 95.2% and the viability at 10 µM was 102%. Further, in series [2], the viability at 1 µM is 86.4% and the viability at 10 µM worked out at 100%.

`CCC(=CC12c3ccccc3C(c3ccccc31)c1ccccc12)[N+](=O)[O-]` [Compound 20c, (E)-9-(2-Nitrobut-1-en-1-yl)-9,10-dihydro-9,10-[1,2]benzenoanthracene] displayed a melting point of 210 to 211 °C. Also, in series [1], the viability at 1 µM worked out at 106% and the viability at 10 µM is 102%. In series [2], the viability at 1 µM is 95.1% and the viability at 10 µM is 84.8%.

Take `O=[N+]([O-])CCC12c3ccccc3C(c3ccccc31)c1ccccc12` [Compound 20e, 9-(2-Nitroethyl)-9,10-dihydro-9,10-[1,2]benzenoanthracene]: the melting point lay in the range of 185 to 187 °C. Also, in series [1], the viability at 1 µM is 98.9% and the viability at 10 µM came out at 111%. In addition, in series [2], the viability at 1 µM turned out to be 97.6% and the viability at 10 µM was determined as 97.2%.
